Data published in patent US20240108002A1, “1-AMINO-1-CYCLOPROPANECARBOXYLIC ACID AND PROHYDROJASMON MIXTURES AND USES THEREOF” (Valent BioSciences LLC, priority 2022, published 2024).

System: Imperial Gala apples
Assay: Apple coloration in Imperial Gala variety, percent red pixel area after foliar spray
Type: in vivo
Details: for Average % Red Pixel Area: foliar spray, 34 hours post spray; for Fold Change From control: vs 0.05% Regulaid control
Description: 10 sets of unripened apples, Imperial Gala variety, harvested three weeks before the normal harvest date, were each foliar sprayed with either 1) 0.05% Regulaid® as a control, 2) 50 ppm prohydrojasmon, 3) 300 ppm prohydrojasmon, 4) 50 ppm ACC, 5) 300 ppm ACC or 6) a mixture of 50 ppm prohydrojasmon and 50 ppm ACC or 7) a mixture of 300 ppm prohydrojasmon and 300 ppm ACC. 34 hours post spray application percent red pixel area (shaded) was measured. Percent red pixel area is an indication of the coloration of the apple fruit.
To determine if the mixture provided unexpected results, the observed combined efficacy (“OCE”) was divided by the expected combined efficacy (“ECE”) wherein the ECE is calculated by the Abbott method: […]
wherein ECE is the expected combined efficacy and in which A and B are the fold change from control given by the single active ingredients. If the ratio between the OCE of the mixture and the ECE of the mixture is greater than 1, then greater than expected interactions are present in the mixture. (Gisi, Synergistic Interaction of Fungicides in Mixtures, The American Phytopathological Society, 86:11, 1273-1279,1996).

| SMILES | Average % Red Pixel Area (single active at 50 ppm) | Fold Change From control (single active at 50 ppm) | Average % Red Pixel Area (single active at 300 ppm) | Fold Change From control (single active at 300 ppm) |
| --- | --- | --- | --- | --- |
| CCCCCC1C(=O)CCC1CC(=O)OCCC (centres unmarked) [prohydrojasmon] | 15.84% | 1.33 | 21.03% | 2.09 |
| NC1(C(=O)O)CC1 [ACC, 1-amino-1-cyclopropanecarboxylic acid] | 7.02% | 0.03 | 4.66% | −0.31 |
